Measurements published in US9630955B2, “Chemical compound useful as intermediate for preparing a catechol-O-methyltransferase inhibitor” (BIAL—Portela & Cª., S.A, priority 2011, dated 2017).
Read-outs that look alike come from different tables or passages of the source.

Experiments:
liver COMT = target: T1, liver COMT (Rattus norvegicus, UniProt P22734); assay: inhibition of liver COMT post oral administration to rats; format: in vivo; details: for ED50: rat, po
T1 construct: from tissue; host or cells: rat liver
T1 sequence (P22734 1-264): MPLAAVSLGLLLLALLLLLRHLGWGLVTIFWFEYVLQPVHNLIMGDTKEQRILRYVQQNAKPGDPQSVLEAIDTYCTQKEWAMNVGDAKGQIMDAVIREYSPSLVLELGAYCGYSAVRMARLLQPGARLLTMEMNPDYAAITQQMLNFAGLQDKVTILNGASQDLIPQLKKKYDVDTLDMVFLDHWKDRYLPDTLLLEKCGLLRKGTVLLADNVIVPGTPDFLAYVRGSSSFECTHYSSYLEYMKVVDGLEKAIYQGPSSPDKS

COMT in the brain = target: T2, COMT in the brain (Rattus norvegicus, UniProt P22734); assay: inhibition of COMT in the brain following oral administration to the rat; format: in vivo; details: over a period of 8 hours post administration
T2 construct: from tissue; host or cells: rat brain
T2 sequence (P22734 1-264): T1 sequence (P22734 1-264)

human recombinant S-COMT = target: T3, human recombinant S-COMT (Homo sapiens, UniProt P21964)
T3 sequence (P21964 1-221 isoform P21964-2): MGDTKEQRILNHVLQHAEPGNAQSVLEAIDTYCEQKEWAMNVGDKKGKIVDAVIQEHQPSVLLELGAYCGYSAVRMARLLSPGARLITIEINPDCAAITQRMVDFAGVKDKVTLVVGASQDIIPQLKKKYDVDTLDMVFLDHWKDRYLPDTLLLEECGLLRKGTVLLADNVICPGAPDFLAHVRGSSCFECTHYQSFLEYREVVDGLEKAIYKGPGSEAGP

enzyme activity recovery (rat liver COMT) (liver COMT; oral administration, after 9 hours): about 84%
ED50 (liver COMT; read-out: ED50 inhibiting liver COMT, rats, oral administration, at 3 hours post administration): 1.28 mg/kg
ED50 (liver COMT; read-out: ED50 inhibiting liver COMT, rats, oral administration, at 6 hours post administration): 2.08 mg/kg
enzyme activity inhibited (COMT in the brain) (COMT in the brain): about 50%
inhibition of human recombinant S-COMT (in words) (human recombinant S-COMT): inhibit
Structure (SMILES): Cc1ccc(C(=O)c2cc(O)c(O)c([N+](=O)[O-])c2)cc1 [tolcapone]
